Source: patent publication US20240199598A1 (MITOIMMUNE THERAPEUTICS INC., priority 2021, published 2024)
Read-outs that look alike come from different tables or passages of the source.

Legend:
[1] = Stability test of Crystalline form III of sulfate (light, dark, 60° C., 40° C./75% RH); type: physicochemical
Procedure: The chemical and physical stability of Crystalline form III were studied under conditions of light, light-shielding, 60° C. and 40° C./75% RH for 1 month. […] In the light stability test, the crystalline form was stored in a light stability test chamber without a lid and thus exposed to a total illuminance of 1.2 million lux-hr, and a sample vial completely covered with an aluminum foil was regarded as a light-shielded control (Dark control). Appearance by visual observation for 2 weeks, 1 month, 2 months and 3 months was recorded, and purity assessment and XPRD data collection for residual solid contents were performed.

[2] = Maintenance of Crystalline form III under melting-cooling, water sorption and desorption, compressive behavior and grinding tests (XRPD); type: physicochemical; conditions: melting-cooling method
Procedure: 10 mg of a sample was placed in a mesh stainless steel basket using SMS DVS Advantage 1. The entire experimental cycle consists of two scans (water sorption and desorption) at a constant temperature (25° C.) and 10% RH intervals in the range of 40 to 90% (60 to 360 minutes for each humidity level).
XRPD result, no novel crystalline form was produced.
As an XRPD result, no novel crystalline form was produced.
As a result of the XRPD test, no novel crystalline form was produced.
As a result of the XRPD test, no novel pattern was produced.

[3] = Solubility of compound of Chemical Formula 1 in various solvents; type: physicochemical
From the text: Very low solubility in various solvents adversely affects pharmaceutical development that requires the production of a finished product in a completely dissolved state.

pKa, UV-metric method = type: physicochemical
From the text: As shown in the following Table 2, each combination of counter ions and solvents were given a batch number.

[4] = Physicochemical stability test of free form and 5 salts (60° C., 40° C./75% humidity, light); conditions: for Final purity: HPLC
Procedure: In the case of a light stability test, the vial was stored in a light stability test chamber while being not closed with a lid, and exposed to a total illuminance of 1.2 million lux-hr. A vial light-shielded with aluminum foil was used as an experimental control (Dark control). For stability assessment, state assessment by visual observation, purity assessment using HPLC, and crystalline form assessment using XRPD were conducted, and results thereof are shown in Table 7. […] In FIGS. 19 to 30, “Light” represents light irradiation condition results.

[5] = Oral administration pharmacokinetic test using mice
[6] = 1.2 million lux-hr, listed as Free form of compound 1
[7] = 40° C./75% RH, 1 w, listed as Free form of compound 1
[8] = 60° C., 1 w, listed as Free form of compound 1
[9] = Dark control, listed as Free form of compound 1

Structure (SMILES): O=S1(=O)CCN(Cc2cc(NC3CCOCC3)c3[nH]c(-c4ccccc4)cc3c2)CC1 [Crystalline form III]
- Purity decrease ([1]; 40° C. for 1 month): 0.67%
- Appearance ([1]; 40° C./75% RH, 1 M): White powder
- Assay ([1]; 40° C./75% RH, 1 M): 102.84%
- Final purity ([1]; 40° C./75% RH, 1 M): 98.71%
- Purity change ([1]; 40° C./75% RH, 1 M): −0.67%
- XRPD patterns ([1]; 40° C./75% RH, 1 M): Pattern III
- Appearance ([1]; 40° C./75% RH, 2 w): White powder
- Assay ([1]; 40° C./75% RH, 2 w): 99.42%
- Final purity ([1]; 40° C./75% RH, 2 w): 98.77%
- Purity change ([1]; 40° C./75% RH, 2 w): −0.61%
- XRPD patterns ([1]; 40° C./75% RH, 2 w): Pattern III
- Stability (in words) ([1]; 60° C. for 1 month): stable
- Appearance ([1]; 60° C., 1 M): White powder
- Assay ([1]; 60° C., 1 M): 106.79%
- Final purity ([1]; 60° C., 1 M): 99.25%
- Purity change ([1]; 60° C., 1 M): −0.13%
- XRPD patterns ([1]; 60° C., 1 M): Pattern III
- Appearance ([1]; 60° C., 2 w): White powder
- Assay ([1]; 60° C., 2 w): 101.08%
- Final purity ([1]; 60° C., 2 w): 99.24%
- Purity change ([1]; 60° C., 2 w): −0.14%
- XRPD patterns ([1]; 60° C., 2 w): Pattern III
- Appearance ([1]; Dark (light-shielded control)): White powder
- Assay ([1]; Dark (light-shielded control)): 103.17%
- Final purity ([1]; Dark (light-shielded control)): 99.33%
- Purity change ([1]; Dark (light-shielded control)): −0.05%
- XRPD patterns ([1]; Dark (light-shielded control)): Pattern III
- Appearance ([1]; Initial): White powder
- Final purity ([1]; Initial): 99.38%
- XRPD patterns ([1]; Initial): Pattern III
- Appearance ([1]; Light (1.2 million lux-hr)): Taupe powder
- Assay ([1]; Light (1.2 million lux-hr)): 101.77%
- Final purity ([1]; Light (1.2 million lux-hr)): 99.38%
- Purity change ([1]; Light (1.2 million lux-hr)): −0.00%
- XRPD patterns ([1]; Light (1.2 million lux-hr)): Pattern III
- Stability (in words) ([1]; light and light-shielding conditions): stable
- Stability of the crystalline form (in words) [2]: stable under each test condition

Structure (SMILES): O=S1(=O)CCN(Cc2cc(NC3CCOCC3)c3[nH]c(-c4ccccc4)cc3c2)CC1 [compound of Chemical Formula 1, 5-[(1,1-dioxido-4-thiomorpholinyl)methyl]-2-phenyl-N-(tetrahydro-2H-pyran-4-yl)-1H-indol-7-amine]
- solubility ([3]; Heptane, 25° C.): <LOQ
- solubility ([3]; Heptane, 50° C.): <LOQ
- solubility ([3]; Water, 25° C., read-out: Solubility): 1 µg/mL
- solubility ([3]; Water, 50° C., read-out: Solubility): 46 µg/mL
- solubility ([3]; aqueous with cosolvent or surfactant or cyclodextrin, Acetic acid-water (1:1), 25° C., read-out: Solubility): 52800 µg/mL
- solubility ([3]; aqueous with cosolvent or surfactant or cyclodextrin, Acetic acid-water (1:1), 50° C., read-out: Solubility): 75600 µg/mL
- solubility ([3]; aqueous with cosolvent or surfactant or cyclodextrin, Acetone-water (1:2), 25° C., read-out: Solubility): 80 µg/mL
- solubility ([3]; aqueous with cosolvent or surfactant or cyclodextrin, Acetone-water (1:2), 50° C., read-out: Solubility): 160 µg/mL
- solubility ([3]; aqueous with cosolvent or surfactant or cyclodextrin, MeOH/water = 1:1 (v/v), 25° C., read-out: Solubility): 30 µg/mL
- solubility ([3]; aqueous with cosolvent or surfactant or cyclodextrin, MeOH/water = 1:1 (v/v), 50° C., read-out: Solubility): 80 µg/mL
- solubility ([3]; organic solvent or mixture, 1-Butanol, 25° C., read-out: Solubility): 650 µg/mL
- solubility ([3]; organic solvent or mixture, 1-Butanol, 50° C., read-out: Solubility): 1000 µg/mL
- solubility ([3]; organic solvent or mixture, 2-Methyltetrahydrofuran (2-MeTHF), 25° C., read-out: Solubility): 2780 µg/mL
- solubility ([3]; organic solvent or mixture, 2-Methyltetrahydrofuran (2-MeTHF), 50° C., read-out: Solubility): 3410 µg/mL
- solubility ([3]; organic solvent or mixture, Acetone, 25° C., read-out: Solubility): 5290 µg/mL
- solubility ([3]; organic solvent or mixture, Acetone, 50° C., read-out: Solubility): 17500 µg/mL
- solubility ([3]; organic solvent or mixture, Acetonitrile (ACN), 25° C., read-out: Solubility): 3090 µg/mL
- solubility ([3]; organic solvent or mixture, Acetonitrile (ACN), 50° C., read-out: Solubility): 4040 µg/mL
- solubility ([3]; organic solvent or mixture, Chloroform (CHCl3), 25° C., read-out: Solubility): 4700 µg/mL
- solubility ([3]; organic solvent or mixture, Chloroform (CHCl3), 50° C., read-out: Solubility): 4620 µg/mL
- solubility ([3]; organic solvent or mixture, Dimethyl sulfoxide (DMSO), 25° C., read-out: Solubility): 43400 µg/mL
- solubility ([3]; organic solvent or mixture, Dimethyl sulfoxide (DMSO), 50° C., read-out: Solubility): 238000 µg/mL
- solubility ([3]; organic solvent or mixture, Ethanol (EtOH), 25° C., read-out: Solubility): 1410 µg/mL
- solubility ([3]; organic solvent or mixture, Ethanol (EtOH), 50° C., read-out: Solubility): 1080 µg/mL
- solubility ([3]; organic solvent or mixture, Ethyl acetate (EtOAc), 25° C., read-out: Solubility): 1360 µg/mL
- solubility ([3]; organic solvent or mixture, Ethyl acetate (EtOAc), 50° C., read-out: Solubility): 1860 µg/mL
- solubility ([3]; organic solvent or mixture, Isopropanol (IPA), 25° C., read-out: Solubility): 320 µg/mL
- solubility ([3]; organic solvent or mixture, Isopropanol (IPA), 50° C., read-out: Solubility): 540 µg/mL
- solubility ([3]; organic solvent or mixture, Isopropyl acetate (iPrOAc), 25° C., read-out: Solubility): 710 µg/mL
- solubility ([3]; organic solvent or mixture, Isopropyl acetate (iPrOAc), 50° C., read-out: Solubility): 910 µg/mL
- solubility ([3]; organic solvent or mixture, Methanol (MeOH), 25° C., read-out: Solubility): 590 µg/mL
- solubility ([3]; organic solvent or mixture, Methanol (MeOH), 50° C., read-out: Solubility): 1150 µg/mL
- solubility ([3]; organic solvent or mixture, Methyl ethyl ketone (MEK), 25° C., read-out: Solubility): 6080 µg/mL
- solubility ([3]; organic solvent or mixture, Methyl ethyl ketone (MEK), 50° C., read-out: Solubility): 8120 µg/mL
- solubility ([3]; organic solvent or mixture, Methyl isobutyl ketone (MIBK), 25° C., read-out: Solubility): 2100 µg/mL
- solubility ([3]; organic solvent or mixture, Methyl isobutyl ketone (MIBK), 50° C., read-out: Solubility): 2820 µg/mL
- solubility ([3]; organic solvent or mixture, Methyl tert-butyl ether (MTBE), 25° C., read-out: Solubility): 60 µg/mL
- solubility ([3]; organic solvent or mixture, Methyl tert-butyl ether (MTBE), 50° C., read-out: Solubility): 70 µg/mL
- solubility ([3]; organic solvent or mixture, N,N-dimethylformamide (DMF), 50° C., read-out: Solubility): 333000 µg/mL
- solubility ([3]; organic solvent or mixture, N-methyl pyrrolidone (NMP), 25° C., read-out: Solubility): 160000 µg/mL
- solubility ([3]; organic solvent or mixture, N-methyl pyrrolidone (NMP), 50° C., read-out: Solubility): 192000 µg/mL
- solubility ([3]; organic solvent or mixture, Tetrahydrofuran (THF), 25° C., read-out: Solubility): 17400 µg/mL
- solubility ([3]; organic solvent or mixture, Tetrahydrofuran (THF), 50° C., read-out: Solubility): 16300 µg/mL
- solubility ([3]; organic solvent or mixture, Toluene, 25° C., read-out: Solubility): 20 µg/mL
- solubility ([3]; organic solvent or mixture, Toluene, 50° C., read-out: Solubility): 20 µg/mL
- pKa (pKa, UV-metric method): 4.5
- Appearance ([4]; 1.2 million lux-hr (light stability), listed as Free form of compound 1): White powder
- Final purity [4, 6]: 99.89%
- Assay [4, 6]: 107.41%
- Purity change [4, 6]: +0.13%
- XRPD patterns [4, 6]: Pattern A
- Final purity [4, 7]: 99.95%
- Assay [4, 7]: 110.59%
- Purity change [4, 7]: +0.19%
- XRPD patterns [4, 7]: Pattern A
- Chemical stability (purity change %/1 w), 40° C./75% RH ([4]; 40° C./75% RH, 1 w, summary Table 9, listed as Free form of compound of Chemical Formula 1): 0.19%
- Final purity [4, 8]: 99.94%
- Assay [4, 8]: 105.89%
- Purity change [4, 8]: +0.18%
- XRPD patterns [4, 8]: Pattern A
- Chemical stability (purity change %/1 w), 60° C. ([4]; 60° C., 1 w, summary Table 9, listed as Free form of compound of Chemical Formula 1): 0.18%
- Appearance ([4]; Dark control (light-shielded vial)): White powder
- Final purity [4, 9]: 99.94%
- Assay [4, 9]: 109.40%
- Purity change [4, 9]: +0.18%
- XRPD patterns [4, 9]: Pattern A
- Chemical stability (purity change %/1 w), Light stability ([4]; light stability, summary Table 9, listed as Free form of compound of Chemical Formula 1): 0.13%
- Cmax ([5]; mice, oral, 10 mg/kg, listed as Free): 1015.2 ng/mL
- t½ ([5]; mice, oral, 10 mg/kg, listed as free form): 72 min
- AUClast ([5]; mice, oral, 10 mg/kg, listed as free form of the compound of Chemical Formula 1, 10 mg/kg): 3603.9 ng·h/mL
- Pharmacokinetic test, t½ ([5]; mice, oral, summary Table 9, listed as Free form of compound of Chemical Formula 1): 60 min
- Tmax ([5]; mouse, in vivo, po, 10 mg/kg): 30 min
